Test results: patent US6518304B1, “Fungicidal composition” (Sumitomo Chemical Company, Limited, priority 1993, dated 2003)
Like-named read-outs stand apart in the source and are kept apart here.

Key:
[1] = tested on: apple scab fungus; experiment: Test Example 13: apple scab, foliage application then inoculation; assay type: in vivo, Venturia inaequalis; details: 0.5 ppm; apple seedling
[2] = tested on: grape downy mildew fungus; experiment: Test Example 7: grape downy mildew, foliage application then inoculation; details: 2 ppm; grape seedling
Method: (§1) Each of plastic pots was filled with sandy loam and sown with grape (Berry A), followed by growing in a greenhouse for 40 days. […] Then, the young seedling was inoculated with a suspension of zoosporangia of grape downy mildew fungus by spraying. After the inoculation, the young seedling was allowed to stand overnight at 23° C. and a high humidity and then grown in a greenhouse for 7 days, after which the infection rate (%) was investigated.

[3] = tested on: tomato late blight fungus (Phytophthora infestans); assay type: in vivo; details: 10 ppm; tomato plant, 1 week at 24° C.
[4] = tested on: grape downy mildew fungus; experiment: Test Example 6: grape downy mildew, foliage application then inoculation; details: 1 ppm; grape seedling
Method: as §1

[5] = tested on: grape powdery mildew fungus (Uncinula necator); experiment: Test Example 14: grape powdery mildew, spray then inoculation; assay type: in vivo; details: 1 ppm; grape plant, 3 weeks at 24° C.
[6] = tested on: tomato late blight fungus (Phytophthora infestans); assay type: in vivo; details: 10 ppm; tomato plant, 1 week at 24° C.; remark: listed apart in the source
[7] = tested on: tomato late blight fungus; assay type: in vivo, Phytophthora infestans; details: 5 ppm; tomato seedling
[8] = tested on: grape downy mildew fungus (Plasmopara viticola); experiment: Test Example 2: grape downy mildew, spray then inoculation, infection rate; assay type: in vivo; details: 10 ppm; grape plant, 1 week at 24° C.
Text: A grape plant (cultivar: Berry A) was planted in each pot and was sprayed with a sufficient volume of a dilution with a predetermined concentration of a wettable powder obtained according to Formulation Example 5, after the plant put out a fourth leaf.

[9] = tested on: gray mold fungus; experiment: Test Example 4: cucumber gray mold, foliage application after inoculation; details: 20 ppm; cucumber seedling, applied after inoculation
Method: Each of plastic pots was filled with sandy loam and sown with cucumber (Sagamihanjiro), followed by growing in a greenhouse for 14 days. Gray mold fungus was inoculated on the surfaces of leaves of the grown cucumber young seedling, and the young seedling was grown in the dark at 10° C. and a high humidity for 2 days and then at a temperature of 23° C. for 3 days. A wettable powder of test agents prepared according to Formulation Example 11 was diluted to a predetermined concentration with water, and foliage application of the dilution was carried out so as to adhere the dilution sufficiently to the surfaces of leaves of the cucumber young seedling. After the spraying, the young seedling was grown in the dark at 10° C. and a high humidity for 3 days, and then the infection rate (%) was investigated.

[10] = tested on: gray mold fungi tolerant to benzimidazole type fungicidal compounds; experiment: Test Example 12: cucumber gray mold, benzimidazole-tolerant (resistant) fungus; details: 20 ppm; cucumber seedling
Method: Each of plastic pots was filled with sandy loam and sown with cucumber (Sagamihanjiro), followed by growing in a greenhouse for 14 days. […] After air-drying, each of gray mold fungi sensitive and tolerant, respectively, to benzimidazole type fungicidal compounds was inoculated on the surfaces of leaves of the young seedling, and the young seedling was grown in the dark at 10° C. and a high humidity for 4 days, after which the infection rate (%) was investigated.

[11] = tested on: grape downy mildew fungus; experiment: Test Example 9: grape downy mildew, foliage application then inoculation; details: 10 ppm; grape seedling
Method: as §1

[12] = tested on: gray mold fungi sensitive to benzimidazole type fungicidal compounds; experiment: Test Example 17: cucumber gray mold, benzimidazole-sensitive fungus; details: 20 ppm; cucumber seedling
Method: (§2) Each of plastic pots was filled with sandy loam and sown with cucumber (Sagamihanjiro), followed by growing in a greenhouse for 14 days. A wettable powder of test agents prepared according to Formulation Example 59 was diluted to a predetermined concentration with water, and foliage application of the dilution was carried out so as to adhere the dilution sufficiently to the surfaces of leaves of the grown cucumber young seedling. After air-drying, each of gray mold fungi sensitive and tolerant, respectively, to benzimidazole type fungicidal compounds was inoculated on the surfaces of leaves of the young seedling, and the young seedling was grown in the dark at 10° C. and a high humidity for 4 days, after which the infection rate (%) was investigated.

[13] = tested on: gray mold fungi sensitive to benzimidazole type fungicidal compounds; experiment: Test Example 12: cucumber gray mold, benzimidazole-sensitive fungus; details: 20 ppm; cucumber seedling
Method: Each of plastic pots was filled with sandy loam and sown with cucumber (Sagamihanjiro), followed by growing in a greenhouse for 14 days. A wettable powder of test agents prepared according to Formulation Example 41 was diluted to a predetermined concentration with water, and foliage application of the dilution was carried out so as to adhere the dilution sufficiently to the surfaces of leaves of the grown cucumber young seedling. After air-drying, each of gray mold fungi sensitive and tolerant, respectively, to benzimidazole type fungicidal compounds was inoculated on the surfaces of leaves of the young seedling, and the young seedling was grown in the dark at 10° C. and a high humidity for 4 days, after which the infection rate (%) was investigated.

[14] = tested on: gray mold fungi tolerant to benzimidazole type fungicidal compounds; experiment: Test Example 17: cucumber gray mold, benzimidazole-tolerant (resistant) fungus; details: 20 ppm; cucumber seedling
Method: as §2

[15] = tested on: tomato late blight fungus; assay type: in vivo, Phytophthora infestans; details: 10 ppm; tomato seedling
[16] = tested on: gray mold fungus; experiment: Test Example 11: cucumber gray mold, foliage application before inoculation; details: 20 ppm; cucumber seedling
Method: Each of plastic pots was filled with sandy loam and sown with cucumber (Sagamihanjiro), followed by growing in a greenhouse for 14 days. A wettable powder of test agents prepared according to Formulation Example 35 was diluted to a predetermined concentration with water, and foliage application of the dilution was carried out so as to adhere the dilution sufficiently to the surfaces of leaves of the grown cucumber young seedling. After air-drying, gray mold fungus was inoculated on the surfaces of leaves of the young seedling, and the young seedling was grown in the dark at 10° C. and a high humidity for 4 days, after which the infection rate (%) was investigated.

[17] = tested on: apple scab fungus; experiment: Test Example 8: apple scab, foliage application then inoculation; assay type: in vivo, Venturia inaequalis; details: 0.5 ppm; apple seedling
[18] = tested on: gray mold fungus; experiment: Test Example 3: cucumber gray mold, foliage application before inoculation; details: 20 ppm; cucumber seedling, applied before inoculation, 4 days
Method: Each of plastic pots was filled with sandy loam and sown with cucumber (Sagamihanjiro), followed by growing in a greenhouse for 14 days. A wettable powder of test agents prepared according to Formulation Example 11 was diluted to a predetermined concentration with water, and foliage application of the dilution was carried out so as to adhere the dilution sufficiently to the surfaces of leaves of the grown cucumber young seedling. After air-drying, gray mold fungus was inoculated on the surfaces of leaves of the young seedling, and the young seedling was grown in the dark at 10° C. and a high humidity for 4 days, after which the infection rate (%) was investigated.

[19] = tested on: grape powdery mildew fungus (Uncinula necator); experiment: Test Example 16: grape powdery mildew, spray then inoculation; assay type: in vivo; details: 10 ppm; grape plant, 3 weeks at 24° C.

`CNC(=O)C(=NOC)c1ccccc1COc1cc(C)ccc1C` [Compound (Ie), N-methyl-α-methoxyimino-2-[(2,5-dimethylphenoxy)methyl]phenylacetamide] was tested, and the “Infection rate (%)” value [1] was 20%, the “Infection rate (%)” value [2] was 20% and the “Infection rate (%)” value [3] was 25%. For the same molecule, the “Infection rate (%)” value [4] was 25%, the “Infection rate (%)” value [5] was 25% and the “Infection rate (%)” value [6] was 25%. For the same molecule, the “Infection rate (%)” value [7] was 25%, the “Infection rate (%)” value [8] was 25% and the “Infection rate (%)” value [9] was 25%. For the same molecule, the “Infection rate (%) Resistant fungus” value [10] was 25%, the “Infection rate (%)” value [11] was 25% and the “Infection rate (%) Sensitive fungus” value [12] was 25%. For the same molecule, the “Infection rate (%) Sensitive fungus” value [13] was 25%, the “Infection rate (%) Resistant fungus” value [14] was 25% and the “Infection rate (%)” value [15] was 20%. The “Infection rate (%)” value [16] was 25%, the “Infection rate (%)” value [17] was 20% and the “Infection rate (%)” value [18] was 25%. The “Infection rate (%)” value [19] was 25%.
